Patent USRE31731E, “Herbicidal 4-trifluoromethyl-4-nitrodiphenyl ethers” (priority 1978, dated 1984)

Legend:
Assay type in all cases: in vivo
Monocots [1] = assay: Herbicidal activity, postemergence, monocot weeds (Table II); details: post-emergence, 336 h, about 2 weeks, read-out: % control (percent of plants killed); for pest or weed control at 4483.4 g/ha: 4 lb./A.; for pest or weed control at 11208.5 g/ha: 10 lb./A.; for pest or weed control at 2241.7 g/ha: 2 lb./A.
Method: (§1) Using the procedure described below, diphenyl ethers were evaluated for control of the following weeds: […]
(§2) barnyardgrass (Echinochloa crusgalli) crabgrass (Digitaria spp.) nutsedge (Cyperus esculentus)
(§3) At 2 and 4 pounds per acre:
(§4) **Bermudagrass (Cynodon dactylon)
(§5) *downy brome (Bromus tectorum) foxtail (Setaria faberii)
(§6) Johnsongrass (Sorghum halepense) […]
(§7) quackgrass (Agropyron repens)
(§8) *ryegrass (Lolium perenne)
(§9) *yellow millet (Panicum miliaceum)
(§10) The following test procedure is employed. Seeds of selected crops and weeds are planted in soil in flats. For preemergence tests, the flats are treated with the test compound immediately after the planting. For postemergence tests, the seeds are allowed to germinate, and after 2 weeks the flats are treated with the test compound. The compound to be evaluated is dissolved in acetone, diluted with water, and sprayed over the flats using a carrier volume equivalent to 50 gallons per acre at the rate of application (pounds per acre, lb/A.) specified in the tables. About 2 weeks after the application of the test compound, the state of growth of the plants is observed and the phytotoxic effect of the compound is evaluated. Table II gives the average percent control achieved by the test compounds in terms of the percent of the plants which are killed by the compounds.

Monocots [2] = assay: Herbicidal activity, preemergence, monocot weeds (Table II); details: pre-emergence, 336 h, about 2 weeks, read-out: % control (percent of plants killed); for pest or weed control at 4483.4 g/ha: 4 lb./A.; for pest or weed control at 11208.5 g/ha: 10 lb./A.; for pest or weed control at 2241.7 g/ha: 2 lb./A.
Method: as §1, §2, §3, §4, §5, §6, §7, §8, §9, §10

Dicots [3] = assay: Herbicidal activity, postemergence, dicot weeds (Table II); details: post-emergence, 336 h, about 2 weeks, read-out: % control (percent of plants killed); for pest or weed control at 4483.4 g/ha: 4 lb./A.; for pest or weed control at 11208.5 g/ha: 10 lb./A.; for pest or weed control at 2241.7 g/ha: 2 lb./A.
Method: as §1
(§11) bindweed (Convolvulus arvensis) curly dock (Remex crispus) velvetleaf (Abutilon theophrasti) wild mustard (Brassica haber)
(§12) At 2 and 4 pounds per acre: […]
(§13) cocklebur (Xanthium pensylvanicum)
(§14) **coffeeweed (Sesbania macrocarpa)
(§15) *curly dock (Rumex crispus)
(§16) *lambsquarters (Chenopodium album) morningglory (Ipomoea purpurea)
(§17) *pigweed (Amaranthus retroflexus)
(§18) **ragweed (Ambrosia artemisiifolia)
(§19) *smartweed (Polygonum pensylvanicum)
(§20) **tomato (Lycopersicon esculentum)
(§21) *wild carrot (Daucus carota)
(§22) *wild mustard (Brassica haber)
as §10

Dicots [4] = assay: Herbicidal activity, preemergence, dicot weeds (Table II); details: pre-emergence, 336 h, about 2 weeks, read-out: % control (percent of plants killed); for pest or weed control at 4483.4 g/ha: 4 lb./A.; for pest or weed control at 11208.5 g/ha: 10 lb./A.; for pest or weed control at 2241.7 g/ha: 2 lb./A.
Method: as §1, §11, §12, §13, §14, §15, §16, §17, §18, §19, §20, §21, §22, §10

CCOc1cc(Oc2ccc(C(F)(F)F)cc2)ccc1[N+](=O)[O-] [Example 1]
pest or weed control at 4483.4 g/ha (Monocots [1]): 57% | pest or weed control at 11208.5 g/ha (Monocots [1]): 82% | pest or weed control at 4483.4 g/ha (Monocots [2]): 76% | pest or weed control at 11208.5 g/ha (Monocots [2]): 42% | pest or weed control at 4483.4 g/ha (Dicots [3]): 58% | pest or weed control at 11208.5 g/ha (Dicots [3]): 100% | pest or weed control at 4483.4 g/ha (Dicots [4]): 45% | pest or weed control at 11208.5 g/ha (Dicots [4]): 35%

COc1cc(Oc2ccc(C(F)(F)F)cc2Cl)ccc1[N+](=O)[O-] [Example 2]
pest or weed control at 4483.4 g/ha (Monocots [1]): 99% | pest or weed control at 11208.5 g/ha (Monocots [1]): 100% | pest or weed control at 4483.4 g/ha (Monocots [2]): 97% | pest or weed control at 11208.5 g/ha (Monocots [2]): 97% | pest or weed control at 4483.4 g/ha (Dicots [3]): 100% | pest or weed control at 11208.5 g/ha (Dicots [3]): 100% | pest or weed control at 4483.4 g/ha (Dicots [4]): 80% | pest or weed control at 11208.5 g/ha (Dicots [4]): 100%

CCCOc1cc(Oc2ccc(C(F)(F)F)cc2Cl)ccc1[N+](=O)[O-] [Example 5]
pest or weed control at 4483.4 g/ha (Monocots [1]): 99% | pest or weed control at 11208.5 g/ha (Monocots [1]): 100% | pest or weed control at 4483.4 g/ha (Monocots [2]): 84% | pest or weed control at 11208.5 g/ha (Monocots [2]): 97% | pest or weed control at 4483.4 g/ha (Dicots [3]): 100% | pest or weed control at 11208.5 g/ha (Dicots [3]): 100% | pest or weed control at 4483.4 g/ha (Dicots [4]): 78% | pest or weed control at 11208.5 g/ha (Dicots [4]): 100%

CCCCOc1cc(Oc2ccc(C(F)(F)F)cc2Cl)ccc1[N+](=O)[O-] [Example 6]
pest or weed control at 4483.4 g/ha (Monocots [1]): 91% | pest or weed control at 11208.5 g/ha (Monocots [1]): 97% | pest or weed control at 4483.4 g/ha (Monocots [2]): 77% | pest or weed control at 11208.5 g/ha (Monocots [2]): 65% | pest or weed control at 4483.4 g/ha (Dicots [3]): 94% | pest or weed control at 11208.5 g/ha (Dicots [3]): 100% | pest or weed control at 4483.4 g/ha (Dicots [4]): 55% | pest or weed control at 11208.5 g/ha (Dicots [4]): 70%

CCOc1cc(Oc2ccc(C(F)(F)F)cc2C#N)ccc1[N+](=O)[O-] [Example 7, 2-Cyano-α,α,α-trifluoro-p-tolyl-3-ethoxy-4-nitrophenyl ether]
pest or weed control at 2241.7 g/ha (Monocots [1]): 82% | pest or weed control at 4483.4 g/ha (Monocots [1]): 75% | pest or weed control at 11208.5 g/ha (Monocots [1]): 100% | pest or weed control at 2241.7 g/ha (Monocots [2]): 65% | pest or weed control at 4483.4 g/ha (Monocots [2]): 65% | pest or weed control at 11208.5 g/ha (Monocots [2]): 61% | pest or weed control at 2241.7 g/ha (Dicots [3]): 80% | pest or weed control at 4483.4 g/ha (Dicots [3]): 77% | pest or weed control at 11208.5 g/ha (Dicots [3]): 100% | pest or weed control at 2241.7 g/ha (Dicots [4]): 54% | pest or weed control at 4483.4 g/ha (Dicots [4]): 57% | pest or weed control at 11208.5 g/ha (Dicots [4]): 60%

CCCOc1cc(Oc2ccc(C(F)(F)F)cc2C#N)ccc1[N+](=O)[O-] [Example 8]
pest or weed control at 2241.7 g/ha (Monocots [1]): 35% | pest or weed control at 4483.4 g/ha (Monocots [1]): 48% | pest or weed control at 11208.5 g/ha (Monocots [1]): 85% | pest or weed control at 2241.7 g/ha (Monocots [2]): 52% | pest or weed control at 4483.4 g/ha (Monocots [2]): 61% | pest or weed control at 11208.5 g/ha (Monocots [2]): 81% | pest or weed control at 2241.7 g/ha (Dicots [3]): 66% | pest or weed control at 4483.4 g/ha (Dicots [3]): 80% | pest or weed control at 11208.5 g/ha (Dicots [3]): 100% | pest or weed control at 2241.7 g/ha (Dicots [4]): 46% | pest or weed control at 4483.4 g/ha (Dicots [4]): 57% | pest or weed control at 11208.5 g/ha (Dicots [4]): 82%

Cc1cc(Oc2ccc(C(F)(F)F)cc2C#N)ccc1[N+](=O)[O-] [Example 9]
pest or weed control at 2241.7 g/ha (Monocots [1]): 82% | pest or weed control at 4483.4 g/ha (Monocots [1]): 97% | pest or weed control at 11208.5 g/ha (Monocots [1]): 100% | pest or weed control at 2241.7 g/ha (Monocots [2]): 81% | pest or weed control at 4483.4 g/ha (Monocots [2]): 90% | pest or weed control at 11208.5 g/ha (Monocots [2]): 99% | pest or weed control at 2241.7 g/ha (Dicots [3]): 75% | pest or weed control at 4483.4 g/ha (Dicots [3]): 81% | pest or weed control at 11208.5 g/ha (Dicots [3]): 100% | pest or weed control at 2241.7 g/ha (Dicots [4]): 67% | pest or weed control at 4483.4 g/ha (Dicots [4]): 66% | pest or weed control at 11208.5 g/ha (Dicots [4]): 92%

O=[N+]([O-])c1ccc(Oc2ccc(C(F)(F)F)cc2Cl)cc1O [Example 10, 2-Chloro-α,α,α-trifluoro-p-tolyl-3-hydroxy-4-nitrophenyl ether]
pest or weed control at 2241.7 g/ha (Monocots [1]): 17% | pest or weed control at 4483.4 g/ha (Monocots [1]): 67% | pest or weed control at 2241.7 g/ha (Monocots [2]): 66% | pest or weed control at 4483.4 g/ha (Monocots [2]): 70% | pest or weed control at 2241.7 g/ha (Dicots [3]): 85% | pest or weed control at 4483.4 g/ha (Dicots [3]): 98% | pest or weed control at 2241.7 g/ha (Dicots [4]): 70% | pest or weed control at 4483.4 g/ha (Dicots [4]): 100%

C=CCOc1cc(Oc2ccc(C(F)(F)F)cc2Cl)ccc1[N+](=O)[O-] [Example 12]
pest or weed control at 2241.7 g/ha (Monocots [1]): 99% | pest or weed control at 4483.4 g/ha (Monocots [1]): 77% | pest or weed control at 2241.7 g/ha (Monocots [2]): 72% | pest or weed control at 4483.4 g/ha (Monocots [2]): 86% | pest or weed control at 2241.7 g/ha (Dicots [3]): 100% | pest or weed control at 4483.4 g/ha (Dicots [3]): 100% | pest or weed control at 2241.7 g/ha (Dicots [4]): 93% | pest or weed control at 4483.4 g/ha (Dicots [4]): 96%
